ChEMBL document CHEMBL1287781, “Novel lipophilic 7H-pyrido[1,2,3-de]-1,4-benzoxazine-6-carboxylic acid derivatives as potential antitumor agents: improved synthesis and in vitro evaluation” (Bioorg Med Chem, 2010)
Active and inactive are the calls of the source. The calls are words filed in the database; no cut-off is given here.

System: MCF7
Assay: Anticancer activity against human MCF7 after 3 to 5 days by MTT assay
Format: functional, cell-based
Conditions: not given

Compound | Activity
CCCCCCCCNC(=O)c1cn2c3c(c(N4CCN(C)CC4)c(F)cc3c1=O)OC[C@@H]2C | Dose-dependent effect
C[C@H]1COc2c(N3CCN(C)CC3)c(F)cc3c(=O)c(C(=O)O)cn1c23 [LEVOFLOXACIN] | Dose-dependent effect

System: A549
Assay: Anticancer activity against human A549 after 5 days by MTT assay
Format: functional, cell-based
Conditions: A549, 120 h

Compound | IC50 [µM]
CCCCCCCCCC(=O)OCOC(=O)c1cn2c3c(c(N4CCN(C)CC4)c(F)cc3c1=O)OC[C@@H]2C | > 1000
CCCCCCCCCCCCCCCNC(=O)c1cn2c3c(c(N4CCN(C)CC4)c(F)cc3c1=O)OC[C@@H]2C | 8
CCCC(=O)OCOC(=O)c1cn2c3c(c(N4CCN(C)CC4)c(F)cc3c1=O)OC[C@@H]2C | 3
CCCCCCCCCCCCCCNC(=O)c1cn2c3c(c(N4CCN(C)CC4)c(F)cc3c1=O)OC[C@@H]2C | 5
CCCCNC(=O)c1cn2c3c(c(N4CCN(C)CC4)c(F)cc3c1=O)OC[C@@H]2C | 46
CCCCCCCCNC(=O)c1cn2c3c(c(N4CCN(C)CC4)c(F)cc3c1=O)OC[C@@H]2C | 2.2
CCCCCCCCCCCCCC(=O)OCOC(=O)c1cn2c3c(c(N4CCN(C)CC4)c(F)cc3c1=O)OC[C@@H]2C | 617
CCCCCCCCCCCCCCCCCC(=O)OCOC(=O)c1cn2c3c(c(N4CCN(C)CC4)c(F)cc3c1=O)OC[C@@H]2C | 593
C[C@H]1COc2c(N3CCN(C)CC3)c(F)cc3c(=O)c(C(=O)O)cn1c23 [LEVOFLOXACIN] | 70

System: A549
Assay: Anticancer activity against human A549 after 3 to 5 days by MTT assay
Format: functional, cell-based
Conditions: not given

Compound | Activity
CCCCCCCCNC(=O)c1cn2c3c(c(N4CCN(C)CC4)c(F)cc3c1=O)OC[C@@H]2C | Dose-dependent effect
C[C@H]1COc2c(N3CCN(C)CC3)c(F)cc3c(=O)c(C(=O)O)cn1c23 [LEVOFLOXACIN] | Dose-dependent effect

System: not listed separately
Assay: Anticancer activity against human U373MG after 5 days by MTT assay
Format: functional, cell-based, U-373MG ATCC
Conditions: U373 MG, 120 h

Compound | IC50 [µM]
CCCCCCCCCC(=O)OCOC(=O)c1cn2c3c(c(N4CCN(C)CC4)c(F)cc3c1=O)OC[C@@H]2C | > 1000
CCCCCCCCCCCCCCCNC(=O)c1cn2c3c(c(N4CCN(C)CC4)c(F)cc3c1=O)OC[C@@H]2C | 7
CCCC(=O)OCOC(=O)c1cn2c3c(c(N4CCN(C)CC4)c(F)cc3c1=O)OC[C@@H]2C | 40
CCCCCCCCCCCCCCNC(=O)c1cn2c3c(c(N4CCN(C)CC4)c(F)cc3c1=O)OC[C@@H]2C | 3
CCCCNC(=O)c1cn2c3c(c(N4CCN(C)CC4)c(F)cc3c1=O)OC[C@@H]2C | 113
CCCCCCCCNC(=O)c1cn2c3c(c(N4CCN(C)CC4)c(F)cc3c1=O)OC[C@@H]2C | 2.3
CCCCCCCCCCCCCC(=O)OCOC(=O)c1cn2c3c(c(N4CCN(C)CC4)c(F)cc3c1=O)OC[C@@H]2C | 8
CCCCCCCCCCCCCCCCCC(=O)OCOC(=O)c1cn2c3c(c(N4CCN(C)CC4)c(F)cc3c1=O)OC[C@@H]2C | 0.9
C[C@H]1COc2c(N3CCN(C)CC3)c(F)cc3c(=O)c(C(=O)O)cn1c23 [LEVOFLOXACIN] | 188

System: LoVo
Assay: Anticancer activity against human LoVo cells after 3 to 5 days by MTT assay
Format: functional, cell-based
Conditions: not given

Compound | Activity
CCCCCCCCNC(=O)c1cn2c3c(c(N4CCN(C)CC4)c(F)cc3c1=O)OC[C@@H]2C | Dose-dependent effect
C[C@H]1COc2c(N3CCN(C)CC3)c(F)cc3c(=O)c(C(=O)O)cn1c23 [LEVOFLOXACIN] | Dose-dependent effect

System: PC-3
Assay: Anticancer activity against human PC3 after 5 days by MTT assay
Format: functional, cell-based
Conditions: PC-3, 120 h

Compound | IC50 [µM]
CCCCCCCCCC(=O)OCOC(=O)c1cn2c3c(c(N4CCN(C)CC4)c(F)cc3c1=O)OC[C@@H]2C | > 1000
CCCCCCCCCCCCCCCNC(=O)c1cn2c3c(c(N4CCN(C)CC4)c(F)cc3c1=O)OC[C@@H]2C | 5
CCCC(=O)OCOC(=O)c1cn2c3c(c(N4CCN(C)CC4)c(F)cc3c1=O)OC[C@@H]2C | 31
CCCCCCCCCCCCCCNC(=O)c1cn2c3c(c(N4CCN(C)CC4)c(F)cc3c1=O)OC[C@@H]2C | 3
CCCCNC(=O)c1cn2c3c(c(N4CCN(C)CC4)c(F)cc3c1=O)OC[C@@H]2C | 30
CCCCCCCCNC(=O)c1cn2c3c(c(N4CCN(C)CC4)c(F)cc3c1=O)OC[C@@H]2C | 1.5
CCCCCCCCCCCCCC(=O)OCOC(=O)c1cn2c3c(c(N4CCN(C)CC4)c(F)cc3c1=O)OC[C@@H]2C | 71
CCCCCCCCCCCCCCCCCC(=O)OCOC(=O)c1cn2c3c(c(N4CCN(C)CC4)c(F)cc3c1=O)OC[C@@H]2C | 100
C[C@H]1COc2c(N3CCN(C)CC3)c(F)cc3c(=O)c(C(=O)O)cn1c23 [LEVOFLOXACIN] | 238

System: U-373MG ATCC
Assay: Antimigratory activity against human U373MG at 0.1 uM after 6 days by phase-contrast microscopy
Format: functional, cell-based
Conditions: not given

Compound | Activity
CCCCCCCCCCCCCCCCCC(=O)OCOC(=O)c1cn2c3c(c(N4CCN(C)CC4)c(F)cc3c1=O)OC[C@@H]2C | inactive

System: MCF7
Assay: Anticancer activity against human MCF7 after 5 days by MTT assay
Format: functional, cell-based
Conditions: MCF7, 120 h

Compound | IC50 [µM]
CCCCCCCCCC(=O)OCOC(=O)c1cn2c3c(c(N4CCN(C)CC4)c(F)cc3c1=O)OC[C@@H]2C | > 1000
CCCCCCCCCCCCCCCNC(=O)c1cn2c3c(c(N4CCN(C)CC4)c(F)cc3c1=O)OC[C@@H]2C | 15
CCCC(=O)OCOC(=O)c1cn2c3c(c(N4CCN(C)CC4)c(F)cc3c1=O)OC[C@@H]2C | 35
CCCCCCCCCCCCCCNC(=O)c1cn2c3c(c(N4CCN(C)CC4)c(F)cc3c1=O)OC[C@@H]2C | 5
CCCCNC(=O)c1cn2c3c(c(N4CCN(C)CC4)c(F)cc3c1=O)OC[C@@H]2C | 55
CCCCCCCCNC(=O)c1cn2c3c(c(N4CCN(C)CC4)c(F)cc3c1=O)OC[C@@H]2C | 2.1
CCCCCCCCCCCCCC(=O)OCOC(=O)c1cn2c3c(c(N4CCN(C)CC4)c(F)cc3c1=O)OC[C@@H]2C | 6
CCCCCCCCCCCCCCCCCC(=O)OCOC(=O)c1cn2c3c(c(N4CCN(C)CC4)c(F)cc3c1=O)OC[C@@H]2C | 12
C[C@H]1COc2c(N3CCN(C)CC3)c(F)cc3c(=O)c(C(=O)O)cn1c23 [LEVOFLOXACIN] | 622

System: U-373MG ATCC
Assay: Antimigratory activity against human U373MG at 1 uM after 6 days by phase-contrast microscopy
Format: functional, cell-based
Conditions: not given

Compound | Activity
CCCCCCCCCCCCCCCCCC(=O)OCOC(=O)c1cn2c3c(c(N4CCN(C)CC4)c(F)cc3c1=O)OC[C@@H]2C | inactive

System: LoVo
Assay: Anticancer activity against human LoVo cells after 5 days by MTT assay
Format: functional, cell-based
Conditions: 120 h

Compound | IC50 [µM]
CCCCCCCCCC(=O)OCOC(=O)c1cn2c3c(c(N4CCN(C)CC4)c(F)cc3c1=O)OC[C@@H]2C | > 1000
CCCCCCCCCCCCCCCNC(=O)c1cn2c3c(c(N4CCN(C)CC4)c(F)cc3c1=O)OC[C@@H]2C | 6
CCCC(=O)OCOC(=O)c1cn2c3c(c(N4CCN(C)CC4)c(F)cc3c1=O)OC[C@@H]2C | 5
CCCCCCCCCCCCCCNC(=O)c1cn2c3c(c(N4CCN(C)CC4)c(F)cc3c1=O)OC[C@@H]2C | 3
CCCCNC(=O)c1cn2c3c(c(N4CCN(C)CC4)c(F)cc3c1=O)OC[C@@H]2C | 24
CCCCCCCCNC(=O)c1cn2c3c(c(N4CCN(C)CC4)c(F)cc3c1=O)OC[C@@H]2C | 0.8
CCCCCCCCCCCCCC(=O)OCOC(=O)c1cn2c3c(c(N4CCN(C)CC4)c(F)cc3c1=O)OC[C@@H]2C | 21
CCCCCCCCCCCCCCCCCC(=O)OCOC(=O)c1cn2c3c(c(N4CCN(C)CC4)c(F)cc3c1=O)OC[C@@H]2C | 4
C[C@H]1COc2c(N3CCN(C)CC3)c(F)cc3c(=O)c(C(=O)O)cn1c23 [LEVOFLOXACIN] | 67

System: not listed separately
Assay: Chemical stability of the compound in phosphate buffer at pH 7.4 after 7 days
Format: physicochemical
Conditions: read-out: Stability

Compound | remaining at 168 h [%]
CCCC(=O)OCOC(=O)c1cn2c3c(c(N4CCN(C)CC4)c(F)cc3c1=O)OC[C@@H]2C | > 92
CCCCCCCCCCCCCCNC(=O)c1cn2c3c(c(N4CCN(C)CC4)c(F)cc3c1=O)OC[C@@H]2C | > 98
CCCCNC(=O)c1cn2c3c(c(N4CCN(C)CC4)c(F)cc3c1=O)OC[C@@H]2C | > 97
CCCCCCCCNC(=O)c1cn2c3c(c(N4CCN(C)CC4)c(F)cc3c1=O)OC[C@@H]2C | 100

System: PC-3
Assay: Anticancer activity against human PC3 after 3 to 5 days by MTT assay
Format: functional, cell-based
Conditions: not given

Compound | Activity
CCCCCCCCNC(=O)c1cn2c3c(c(N4CCN(C)CC4)c(F)cc3c1=O)OC[C@@H]2C | Dose-dependent effect
C[C@H]1COc2c(N3CCN(C)CC3)c(F)cc3c(=O)c(C(=O)O)cn1c23 [LEVOFLOXACIN] | Dose-dependent effect

System: not listed separately
Assay: Toxicity in ip dosed B6D2F1 mouse after 28 days
Format: organism-based
Conditions: in vivo

Compound | MTD at 672 h [mg/kg]
CCCCCCCCCC(=O)OCOC(=O)c1cn2c3c(c(N4CCN(C)CC4)c(F)cc3c1=O)OC[C@@H]2C | > 80

System: U-373MG ATCC
Assay: Anticancer activity against human U373MG after 3 to 5 days by MTT assay
Format: functional, cell-based
Conditions: not given

Compound | Activity
CCCCCCCCNC(=O)c1cn2c3c(c(N4CCN(C)CC4)c(F)cc3c1=O)OC[C@@H]2C | Dose-dependent effect
C[C@H]1COc2c(N3CCN(C)CC3)c(F)cc3c(=O)c(C(=O)O)cn1c23 [LEVOFLOXACIN] | Dose-dependent effect
